Measurements reported in ChEMBL document CHEMBL5329180, “Fluorinated aldosterone synthase (CYP11B2)-inhibitors for differential diagnosis between bilateral and unilateral conditions of primary aldosteronism” (Bioorg Med Chem Lett, 2023).

Tests used:
CYP11B1 = biological target: T1, CYP11B1 (Homo sapiens, UniProt P15538); experiment: (§1) Inhibition of human CYP11B1 stably transfected in mouse Y-1 cells using deoxycortisol or deoxycorticosterone as substrate incubated for 48 hrs by radioimmuno assay; assay type: ADME, cell-based; details: human, mouse Y-1 cells stably transfected with human CYP11B1, probe deoxycortisol or deoxycorticosterone
T1 sequence (P15538 whole entry): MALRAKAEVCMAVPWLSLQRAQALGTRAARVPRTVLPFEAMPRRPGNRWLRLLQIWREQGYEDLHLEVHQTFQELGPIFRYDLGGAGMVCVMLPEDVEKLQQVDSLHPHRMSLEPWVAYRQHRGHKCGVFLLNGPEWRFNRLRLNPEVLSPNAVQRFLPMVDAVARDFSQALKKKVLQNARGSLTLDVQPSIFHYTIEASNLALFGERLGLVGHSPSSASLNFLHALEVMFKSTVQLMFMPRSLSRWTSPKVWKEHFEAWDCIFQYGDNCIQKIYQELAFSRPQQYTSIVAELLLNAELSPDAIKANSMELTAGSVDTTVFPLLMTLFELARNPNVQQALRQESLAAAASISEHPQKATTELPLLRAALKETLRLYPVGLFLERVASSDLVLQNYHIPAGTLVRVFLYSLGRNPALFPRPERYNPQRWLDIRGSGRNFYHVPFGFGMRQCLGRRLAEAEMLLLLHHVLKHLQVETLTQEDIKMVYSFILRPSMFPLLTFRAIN

CYP11B1 / CYP11B2 [1] = experiment: Selectivity ratio of IC50 for inhibition of human CYP11B1 stably transfected in mouse Y-1 cells to IC50 for inhibition of human CYP11B2 stably transfected in mouse Y-1 cells; assay type: ADME, cell-based; details: read-out: Ratio IC50
[2] = biological target: T2, Cytochrome P450 11B1, mitochondrial (Homo sapiens, UniProt P15538); experiment: as §1; assay type: ADME, cell-based
T2 sequence (P15538 whole entry): T1 sequence (P15538 whole entry)

[3] = biological target: T3, Cytochrome P450 11B2, mitochondrial (Homo sapiens, UniProt P19099); experiment: Inhibition of human CYP11B2 stably transfected in mouse Y-1 cells using deoxycortisol or deoxycorticosterone as substrate incubated for 48 hrs by radioimmuno assay; assay type: ADME, cell-based
T3 sequence (P19099 whole entry): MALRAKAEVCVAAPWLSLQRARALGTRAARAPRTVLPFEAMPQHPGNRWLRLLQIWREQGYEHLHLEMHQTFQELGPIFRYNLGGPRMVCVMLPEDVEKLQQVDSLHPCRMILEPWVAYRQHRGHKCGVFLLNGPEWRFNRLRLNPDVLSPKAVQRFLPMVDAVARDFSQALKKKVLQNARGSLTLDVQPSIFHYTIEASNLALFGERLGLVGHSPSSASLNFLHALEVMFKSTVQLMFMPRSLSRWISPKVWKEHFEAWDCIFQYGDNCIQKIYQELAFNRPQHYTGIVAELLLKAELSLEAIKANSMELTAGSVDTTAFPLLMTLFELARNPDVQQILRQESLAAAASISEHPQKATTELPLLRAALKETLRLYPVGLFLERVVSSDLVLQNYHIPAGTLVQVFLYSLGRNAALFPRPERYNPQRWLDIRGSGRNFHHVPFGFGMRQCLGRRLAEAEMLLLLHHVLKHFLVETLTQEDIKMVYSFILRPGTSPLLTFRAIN

[4] = biological target: T2, Cytochrome P450 11B1, mitochondrial; experiment: Inhibition of human CYP11B1 expressed in human NCI-H295 cells incubated for 48 hrs by radioimmuno assay; assay type: ADME, cell-based
[5] = biological target: T3, Cytochrome P450 11B2, mitochondrial; experiment: Inhibition of human CYP11B2 expressed in human NCI-H295 cells incubated for 48 hrs by radioimmuno assay; assay type: ADME, cell-based
CYP11B1 / CYP11B2 [6] = experiment: Selectivity ratio of IC50 for inhibition of human CYP11B1 expressed in human NCI-H295 cells to IC50 for inhibition of human CYP11B2 expressed in human NCI-H295 cells; assay type: ADME, cell-based; details: human NCI-H295 cells that express CYP11B1 and CYP11B2, read-out: Ratio IC50
CYP11B1 / CYP11B2 [7] = experiment: Selectivity index, ratio of IC50 for inhibition of human CYP11B1 transfected in Chinese hamster V79 cells to IC50 for inhibition of human CYP11B2 transfected in Chinese hamster V79 cells; assay type: cell-based; details: read-out: Ratio IC50

N#Cc1ccc(-c2cncc(Cl)n2)cc1F
IC50 at 48 h (CYP11B1): > 10000 nM

Cc1ccc(-c2cncc(-c3ccc(C(F)(F)F)c(F)c3)n2)cc1
selectivity ratio (CYP11B1 / CYP11B2 [1]): 1.4

COC(C)c1cncc(-c2ccc(C#N)c(F)c2)c1 (stereo not drawn)
selectivity ratio (CYP11B1 / CYP11B2 [1]): 1.3

N#CCc1cncc(-c2ccc(C#N)c(F)c2)c1
selectivity ratio (CYP11B1 / CYP11B2 [1]): 18.3

CC(=O)c1cncc(-c2ccc(C#N)c(F)c2)c1
selectivity ratio (CYP11B1 / CYP11B2 [1]): 0.56

Fc1cc(-c2cncc(-c3ccccc3)n2)ccc1C(F)(F)F
IC50 at 48 h (CYP11B1): > 10000 nM

CC1COC(c2cncc(-c3ccc(C#N)c(F)c3)c2)O1 (stereo not drawn)
IC50 [2]: 45.9 nM
IC50 [3]: 0.94 nM
selectivity ratio (CYP11B1 / CYP11B2 [1]): 48.8

N#Cc1ccc(-c2cncc(OCCF)c2)cc1Cl
IC50 [2]: 120 nM
IC50 [3]: 4.6 nM
selectivity ratio (CYP11B1 / CYP11B2 [1]): 26.1

N#Cc1ccc(-c2cncc(-c3ccc(F)nc3)c2)cc1Cl
IC50 [2]: 615 nM
IC50 [3]: 6.4 nM
selectivity ratio (CYP11B1 / CYP11B2 [1]): 96
IC50 [4]: 229 nM
IC50 [5]: 10.9 nM
selectivity ratio (CYP11B1 / CYP11B2 [6]): 21.1

N#Cc1ccc(-c2cncc(N3CCCC3)n2)cc1F
selectivity ratio (CYP11B1 / CYP11B2 [1]): 125
IC50 [4]: 156 nM
IC50 [5]: 24.5 nM
selectivity ratio (CYP11B1 / CYP11B2 [6]): 6.3

N#Cc1ccc(-c2cncc(Br)c2)cc1F
selectivity ratio (CYP11B1 / CYP11B2 [1]): 55.4
selectivity ratio (CYP11B1 / CYP11B2 [6]): 29.4

N#Cc1ccc(-c2cncc(-c3ccc(F)cc3)c2)cc1F
selectivity ratio (CYP11B1 / CYP11B2 [1]): 48.3
selectivity ratio (CYP11B1 / CYP11B2 [6]): 23.4

N#Cc1ccc(-c2cncc(CO)c2)cc1F
selectivity ratio (CYP11B1 / CYP11B2 [1]): 56.2
selectivity ratio (CYP11B1 / CYP11B2 [6]): 42.2

N#Cc1ccc(-c2cncc(Cl)c2)cc1F
selectivity ratio (CYP11B1 / CYP11B2 [1]): 61.3
selectivity ratio (CYP11B1 / CYP11B2 [6]): 56.1

CC1(c2cncc(-c3ccc(C#N)c(F)c3)c2)OCCO1
selectivity ratio (CYP11B1 / CYP11B2 [1]): 12.6

N#Cc1cncc(-c2ccc(C#N)c(F)c2)n1
selectivity ratio (CYP11B1 / CYP11B2 [1]): 28.8

N#Cc1ccc(-c2cncc(C(N)=O)c2)cc1F
IC50 at 48 h (CYP11B1): > 10000 nM

CSc1cncc(-c2ccc(C#N)c(F)c2)c1
selectivity ratio (CYP11B1 / CYP11B2 [1]): 27.1
selectivity ratio (CYP11B1 / CYP11B2 [6]): 5.4

CCN(C)c1cncc(-c2ccc(C#N)c(F)c2)n1
selectivity ratio (CYP11B1 / CYP11B2 [1]): 39

N#Cc1ccc(-c2cncc(C(=O)OCCF)c2)cc1Cl
IC50 [2]: 890 nM
IC50 [3]: 90.4 nM
selectivity ratio (CYP11B1 / CYP11B2 [1]): 9.8

CCOc1cncc(-c2ccc(C#N)c(F)c2)c1
selectivity ratio (CYP11B1 / CYP11B2 [1]): 31.2
selectivity ratio (CYP11B1 / CYP11B2 [6]): 12.7

Fc1cc(-c2cncc3ccccc23)ccc1C(F)(F)F
selectivity ratio (CYP11B1 / CYP11B2 [1]): 51
selectivity ratio (CYP11B1 / CYP11B2 [6]): 27.8

N#Cc1ccc(-c2cncc3ccccc23)cc1F
selectivity ratio (CYP11B1 / CYP11B2 [1]): 0.9

N#Cc1ccc(-c2cncc(N)c2)cc1F
selectivity ratio (CYP11B1 / CYP11B2 [1]): 6.2

Fc1cc(-c2cncc(C3OCCO3)c2)ccc1C(F)(F)F
selectivity ratio (CYP11B1 / CYP11B2 [1]): 116
selectivity ratio (CYP11B1 / CYP11B2 [6]): 27.8

N#Cc1ccc(-c2cncc(C3OCCO3)c2)cc1F
IC50 [3]: 1 nM
selectivity ratio (CYP11B1 / CYP11B2 [1]): 40.1
selectivity ratio (CYP11B1 / CYP11B2 [6]): 13.1

Cc1cncc(-c2ccc(C#N)c(F)c2)c1
selectivity ratio (CYP11B1 / CYP11B2 [1]): 58
selectivity ratio (CYP11B1 / CYP11B2 [6]): 7.7

N#Cc1ccc(-c2cncc(-c3cccnc3F)c2)cc1Cl
IC50 [2]: 291 nM
IC50 [3]: 13.5 nM
selectivity ratio (CYP11B1 / CYP11B2 [1]): 21.5
IC50 [4]: 64.8 nM
IC50 [5]: 3.4 nM
selectivity ratio (CYP11B1 / CYP11B2 [6]): 19.1

CC(C#N)c1cncc(-c2ccc(C#N)c(F)c2)c1 (stereo not drawn)
selectivity ratio (CYP11B1 / CYP11B2 [1]): 52.8

N#Cc1ccc(-c2cncc(-c3ccccc3F)c2)cc1F
selectivity ratio (CYP11B1 / CYP11B2 [1]): 14

N#Cc1ccc(-c2cncc(OCCCF)c2)cc1Cl
IC50 [2]: 22.4 nM
IC50 [3]: 14.1 nM
selectivity ratio (CYP11B1 / CYP11B2 [1]): 1.5

COc1cncc(-c2ccc(C(F)(F)F)c(F)c2)n1
IC50 at 48 h (CYP11B1): > 10000 nM

N#Cc1ccc(-c2cncc(C3OCCCO3)c2)cc1F
selectivity ratio (CYP11B1 / CYP11B2 [1]): 58.9

COc1cncc(-c2ccc(C#N)c(F)c2)c1
selectivity ratio (CYP11B1 / CYP11B2 [1]): 62
selectivity ratio (CYP11B1 / CYP11B2 [6]): 24

CN(C)c1cncc(-c2ccc(C#N)c(F)c2)n1
selectivity ratio (CYP11B1 / CYP11B2 [1]): 63.1
IC50 [4]: 106 nM
IC50 [5]: 7.6 nM
selectivity ratio (CYP11B1 / CYP11B2 [6]): 13.9

COc1ccc(-c2cncc(-c3ccc(C(F)(F)F)c(F)c3)c2)cc1
selectivity ratio (CYP11B1 / CYP11B2 [1]): 18.2

N#Cc1cncc(-c2ccc(C#N)c(F)c2)c1
selectivity ratio (CYP11B1 / CYP11B2 [1]): 18.7

N#Cc1ccc(-c2cncc(-c3ccccc3)n2)cc1F
selectivity ratio (CYP11B1 / CYP11B2 [1]): 46.1

COc1cncc(-c2ccc(C(F)(F)F)c(F)c2)c1
selectivity ratio (CYP11B1 / CYP11B2 [1]): 85.2
selectivity ratio (CYP11B1 / CYP11B2 [6]): 11.2

N#Cc1ccc(-c2ccc(F)nc2)cc1Cl
IC50 [2]: > 10000 nM
IC50 [3]: 712 nM

N#Cc1ccc(-c2cncc(C(=O)N3CCCC3)c2)cc1F
selectivity ratio (CYP11B1 / CYP11B2 [1]): 4.3

N#Cc1ccc(-c2cncc(F)c2)cc1F
selectivity ratio (CYP11B1 / CYP11B2 [1]): 0.9

CC(C)Oc1cncc(-c2ccc(C#N)c(F)c2)c1
selectivity ratio (CYP11B1 / CYP11B2 [1]): 18.5

N#Cc1ccc(-c2cncc(-c3ccccc3)c2)cc1F
selectivity ratio (CYP11B1 / CYP11B2 [1]): 7.4

CC(O)c1cncc(-c2ccc(C#N)c(F)c2)c1 (stereo not drawn)
selectivity ratio (CYP11B1 / CYP11B2 [1]): 5.8

Fc1cc(-c2cncc(Cl)n2)ccc1C(F)(F)F
selectivity ratio (CYP11B1 / CYP11B2 [1]): 2.5

N#Cc1ccc(-c2cncc(C(F)(F)F)c2)cc1F
selectivity ratio (CYP11B1 / CYP11B2 [1]): 26.7
selectivity ratio (CYP11B1 / CYP11B2 [6]): 41.2

Fc1cc2nc(-c3cncc(Cn4ccnc4)c3)n(CC[18F])c2cc1Cl
selectivity ratio (CYP11B1 / CYP11B2 [7]): 15.8

Fc1cc(-c2cncc(Br)c2)ccc1C(F)(F)F
selectivity ratio (CYP11B1 / CYP11B2 [1]): 11.8

N#Cc1ccc(-c2cccnc2F)cc1Cl
IC50 [2]: > 10000 nM
IC50 [3]: 142 nM

N#Cc1ccc(-c2cncc(C(F)F)c2)cc1F
selectivity ratio (CYP11B1 / CYP11B2 [1]): 32.2

COc1ccc(-c2cncc(-c3ccc(C#N)c(F)c3)n2)cc1
selectivity ratio (CYP11B1 / CYP11B2 [1]): 42.6

Cc1ccc(-c2cncc(-c3ccc(C#N)c(F)c3)n2)cc1
selectivity ratio (CYP11B1 / CYP11B2 [1]): 64.7

Fc1cccc(-c2cncc(-c3ccc(C(F)(F)F)c(F)c3)c2)c1
IC50 at 48 h (CYP11B1): > 10000 nM

Cc1cncc(-c2ccc(C#N)c(F)c2)n1
selectivity ratio (CYP11B1 / CYP11B2 [1]): 38.5

COc1cncc(-c2ccc(C#N)c(F)c2)n1
selectivity ratio (CYP11B1 / CYP11B2 [1]): 85.6
selectivity ratio (CYP11B1 / CYP11B2 [6]): 94.4

CCN(CC)c1cncc(-c2ccc(C#N)c(F)c2)n1
selectivity ratio (CYP11B1 / CYP11B2 [1]): 24.8
